Experiments:
MDA-MB-231 cells = assay: MTS assay (Example 1); assay type: cell-based; settings: Homo sapiens, positive control 50 μM, 24 h, mean±SEM, n=3, read-out: MDA-MB-231 cell viability
Protocol: (§1) • (a) Solvent extraction: Four different solvents were used, namely, methanol, hexane:ethyl acetate (39:1), ethyl acetate, and water. Briefly, 2 g of the test material (MH/GL) were dissolved in 80 ml of appropriate solvents (methanol/hexane:ethyl acetate/ethyl acetate), sonicated twice for 20 min at room temperature (RT), and centrifuged at 3000 rpm for 10 min. The supernatant was collected and evaporated using a rotary evaporation system at 65° C. The concentrated extract was subjected to nitrogen evaporation to remove all the solvent, then dissolved in DMSO to a final concentration of 60 mg/ml. For water extraction, 2 g of the test material was dissolved in 80 ml water, sonicated twice for 20 min at RT, kept at RT for three days, vortexed, and centrifuged at 3000 rpm for 10 min. The supernatant was then freeze-dried into powder. The powder was dissolved in DMSO to a final concentration of 60 mg/ml. • (b) MTS assay: The potential inhibitory effects of MH and GL extracts on HepG2 and MDA-MB-231 cells were measured using MTS assay. Briefly, 6000 cells were seeded and treated with different concentrations (6.25, 12.5, 25, 50, 100, 150, and 300 μg/ml) of extracts for 24 h. Then, MTS/PMS reagent was added and absorbance was measured at 490 nm using a plate reader. Sorafenib (20 μM) and doxorubicin (50 μM) were used as positive controls for HepG2 and MDA-MB-231 cells, respectively. […]

HepG2 cells = assay: MTS assay (Example 1); assay type: cell-based; settings: Homo sapiens, positive control 20 μM, 24 h, mean±SEM, n=3, read-out: HepG2 cell viability
Protocol: as §1

SMILES	viability at 50 µM (MDA-MB-231 cells) [%]	viability at 20 µM (HepG2 cells) [%]
COc1cccc2c1C(=O)c1c(O)c3c(c(O)c1C2=O)C[C@@](O)(C(=O)CO)C[C@@H]3O[C@H]1C[C@H](N)[C@H](O)[C@H](C)O1 [doxorubicin]	24.4 ± 5.1	
CNC(=O)c1cc(Oc2ccc(NC(=O)Nc3ccc(Cl)c(C(F)(F)F)c3)cc2)ccn1 [sorafenib]		26 ± 3.7

— US20230293611A1, “NATURAL PRODUCT EXTRACTS AND METHODS OF USE THEREOF” (THE ADORED BEAST APOTHECARY LTD., priority 2020, published 2023)
